In experiment [1] the target is T1, TIP48/TIP49 complex (Homo sapiens, UniProt Q9Y230+Q9Y265).
T1 construct: made in house; host or cells: E. coli
Nature of the experiment: ATPase assay of TIP48/TIP49 complex (ADP-Glo). In kind it is biochemical. The following applies: concentration at which the ATPase activity was inhibited by 50%. From the text:
The ATPase activity of the TIP48/TIP49 complex can be measured by use of an ATPase assay described below in Test Examples 1 and 2. The ATPase activity of the TIP48/TIP49 complex can be measured, as described below in the Test Examples, for example, by using recombinant human TIP48 and TIP49 proteins (hereinafter, referred to as rTIP48 and rTIP49) and ATP in the presence or absence of a test compound and measuring the amount of ADP formed through hydrolysis by the ATPase activity of the TIP48/TIP49 complex, using ADP-Glo. Alternatively, the ATPase activity of the TIP48/TIP49 complex can be measured by a method described in, for example, J. Mol. Biol. 366, 172-179 (2007).
An ATPase assay of a TIP48/TIP49 complex was conducted using rTIP48 and rTIP49. Human TIP48 and TIP49 DNAs were purchased from Open Biosystems. Human TIP48 and TIP49 cDNAs cloned by PCR using the purchased DNAs were each integrated into plasmids for expression in E. coli and expressed in E. coli to obtain rTIP48 and rTIP49.
A test compound was dissolved at 10 mM using DMSO. The solution was diluted to 10 concentrations as 4-fold serial dilutions from 10 mM using DMSO.
A 2×assay buffer (100 mM Tris-HCl, pH 7.5, 100 mM NaCl, 40 mM MgCl2, 2 mM DTT, 20 μM ATP, and 0.2 mg/mL BSA) was dispensed at 24.5 μL/well to a 384-well assay plate.
Test compound solutions were dispensed thereto at 1 μL/well. Subsequently, the solution in each well was mixed using a plate mixer.
rTIP48 and rTIP49 were diluted to a concentration of 50 μg/mL using sterilized water. The diluted solution was dispensed at 24.5 μL/well to the 384-well assay plate. Subsequently, the solution in each well was mixed using a plate mixer (final concentration: 24.5 μg/mL) (concentration of each test compound solution: 200 μM, 50 μM, 12.5 μM, 3.12 μM, 0.78 μM, 0.20 μM, 0.049 μM, 0.012 μM, 0.003 μM, and 0.0007 μM; DMSO concentration: 2%).
After the mixing using the plate mixer, the assay plate was left standing at room temperature for 1.5 hours.
5 μL of the solution in each well was transferred to a white assay plate, and ADP-Glo Reagent from ADP-Glo Kinase Assay (Promega Corp., catalog No. V9101) was dispensed thereto at 5 μL/well. After completion of the reaction, the plate was left standing at room temperature for 40 minutes. Kinase Detection Reagent was further dispensed thereto at 5 μL/well, and the plate was left standing at room temperature for 30 minutes. Then, luminescence intensity was measured using a plate reader.
The ATPase inhibitory activity was calculated according to the expression given below.
The luminescence intensity of a well supplemented with the test compound and the TIP48/TIP49 complex was defined as A. The luminescence intensity of a well supplemented with only the TIP48/TIP49 complex was defined as B. The luminescence intensity of a well supplemented with neither the test compound nor the TIP48/TIP49 complex was defined as C. The ratio between the test compound-supplemented group and the test compound-nonsupplemented group (T/C value) was determined according to the following calculation expression:
The dose-response curve was calculated using GraphPad Prism 4 from the concentration of each of the serially diluted test compounds and the ATPase inhibitory activity (%) at this concentration.

The test system of experiment [2] is human lymphoma cell line RAMOS cells. Description: Cell growth inhibition test using RAMOS cell, ATP assay (CellTiter-Glo). The experiment is classed as cell-based. The following applies: cultured 3 days, 50% growth inhibition concentration. On the procedure:
A cell growth inhibition test was carried out by treating human lymphoma cell line RAMOS cells with a test compound for a given period and then counting the number of viable cells by MTT assay or CellTiter-Glo Luminescent Cell Viability Assay (manufactured by Promega Corp.; hereinafter, referred to as ATP assay).
RAMOS cells were inoculated at 4000 cells/40 μL/well to a 384-well plate containing the compound prepared in advance at predetermined concentrations. The cells thus inoculated were cultured at 37° C. for 3 days under 5% CO2. In order to measure a cell survival rate, CellTiter-Glo Reagent was added in an amount corresponding to 1/4 of the amount of the culture solution at the day of cell inoculation and at the final culture date and stirred at room temperature for 2 minutes. Then, luminescence intensity was measured using a plate reader. The cell survival rate was calculated according to the expression given below.
The number of viable cells and luminescence intensity have been confirmed to correlate with each other. Therefore, the rate of cell growth was calculated according to the following expression: Rate of cell growth (T/C %) of a test compound-supplemented well=100×[(B−C)/(A−C)] wherein A represents the luminescence intensity (final culture date) of a test compound-free well; B represents the luminescence intensity (final culture date) of a test compound-containing well; and C represents the luminescence intensity (day of cell inoculation) of a well at the start of contact of the cells with the test compound.
T/C % at each concentration of the test compound was determined. The concentration at which the test compound offered 50% growth rate was calculated as a GI50 value from the growth rates at two points interpolating 50% and the concentrations, and is shown in Table 56.

T1 sequence (Q9Y230 whole entry): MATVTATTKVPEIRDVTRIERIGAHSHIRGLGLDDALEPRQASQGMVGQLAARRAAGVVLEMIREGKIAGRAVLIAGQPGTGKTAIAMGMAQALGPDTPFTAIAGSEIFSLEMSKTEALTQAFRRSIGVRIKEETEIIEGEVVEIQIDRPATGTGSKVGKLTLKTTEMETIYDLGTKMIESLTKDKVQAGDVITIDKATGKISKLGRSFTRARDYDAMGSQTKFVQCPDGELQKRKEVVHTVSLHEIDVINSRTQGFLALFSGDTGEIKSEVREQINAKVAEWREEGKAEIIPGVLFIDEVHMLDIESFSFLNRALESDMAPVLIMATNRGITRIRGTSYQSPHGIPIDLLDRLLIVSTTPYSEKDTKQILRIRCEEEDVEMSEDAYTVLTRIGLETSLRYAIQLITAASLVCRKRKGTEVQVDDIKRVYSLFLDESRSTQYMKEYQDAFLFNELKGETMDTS
T1 sequence (Q9Y265 whole entry): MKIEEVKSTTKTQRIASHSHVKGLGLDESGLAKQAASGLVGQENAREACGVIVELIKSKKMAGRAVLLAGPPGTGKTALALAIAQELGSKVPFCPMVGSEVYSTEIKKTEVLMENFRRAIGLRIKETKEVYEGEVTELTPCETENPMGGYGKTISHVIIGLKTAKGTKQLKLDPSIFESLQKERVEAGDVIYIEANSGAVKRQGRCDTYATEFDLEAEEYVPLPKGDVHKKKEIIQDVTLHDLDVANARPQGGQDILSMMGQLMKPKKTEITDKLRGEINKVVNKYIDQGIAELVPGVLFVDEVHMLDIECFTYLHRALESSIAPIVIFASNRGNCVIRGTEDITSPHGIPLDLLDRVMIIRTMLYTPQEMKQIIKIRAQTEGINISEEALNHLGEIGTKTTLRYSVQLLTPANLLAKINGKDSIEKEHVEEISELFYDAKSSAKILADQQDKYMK

In turn, `CCOc1ncc(Cl)cc1C(=O)NCC(C)(C)CC(=O)Nc1c(C(C)NC)n(C)n(-c2ccccc2)c1=O` (single isomer, unassigned; (-)) [Example 86, (−)-5-Chloro-N-[2,2-dimethyl-4-({1-methyl-5-[1-(methylamino)ethyl]-3-oxo-2-phenyl-2,3-dihydro-1H-pyrazol-4-yl}amino)-4-oxobutyl]-2-ethoxypyridine-3-carboxamide] had a half-maximal inhibitory concentration (IC50) in experiment [1] of 90 nM. In experiment [2], this compound showed a GI50 of 180 nM.

`CCOc1ccc(Cl)cc1C(=O)NCC(C)(C)CC(=O)Nc1c(C(C)NC)n(C)n(-c2ccccc2)c1=O` (stereo not drawn) [Example 1, 5-Chloro-N-[2,2-dimethyl-4-({1-methyl-5-[1-(methylamino)ethyl]-3-oxo-2-phenyl-2,3-dihydro-1H-pyrazol-4-yl}amino)-4-oxobutyl]-2-ethoxybenzamide]: the IC50 in experiment [1] is 170 nM. The same compound had a GI50 in experiment [2] (Homo sapiens, Ramos, 72 h) of 130 nM.

As to `CCOc1ncc(Br)cc1C(=O)NCC(C)(C)CC(=O)Nc1c(C(C)CN(C)C)n(C)n(-c2ccccc2)c1=O` (stereo not drawn) [Example 74, 5-Bromo-N-[4-({5-[2-(dimethylamino)-1-methylethyl]-1-methyl-3-oxo-2-phenyl-2,3-dihydro-1H-pyrazol-4-yl}amino)-2,2-dimethyl-4-oxobutyl]-2-ethoxypyridine-3-carboxamide], in experiment [1], the IC50 worked out at 180 nM. Moreover, it took 470 nM to inhibit growth in experiment [2] (Homo sapiens, Ramos, 72 h) by half (GI50).

With `CCOc1ccc(Cl)cc1C(=O)NCC(C)(C)CC(=O)Nc1c(C(C)CNC)n(C)n(-c2ccccc2)c1=O` (stereo not drawn) [Example 76, 5-Chloro-N-[2,2-dimethyl-4-({1-methyl-5-[1-methyl-2-(methylamino)ethyl]-3-oxo-2-phenyl-2,3-dihydro-1H-pyrazol-4-yl}amino)-4-oxobutyl]-2-ethoxybenzamide], in experiment [1], the IC50 is 68 nM. Also, in experiment [2] (Homo sapiens, Ramos, 72 h), growth was halved (GI50) at 590 nM.

Take `COCOc1cc(Cl)c(Cl)cc1C(=O)NCC(C)(C)CC(=O)Nc1c(C(C)CN(C)C)n(C)n(-c2ccccc2)c1=O` (stereo not drawn) [Example 75, 4,5-Dichloro-N-[4-({5-[2-(dimethylamino)-1-methylethyl]-1-methyl-3-oxo-2-phenyl-2,3-dihydro-1H-pyrazol-4-yl}amino)-2,2-dimethyl-4-oxobutyl]-2-(methoxymethoxy)benzamide]: the IC50 in experiment [1] came out at 99 nM. Moreover, the GI50 in experiment [2] (Homo sapiens, Ramos, 72 h) is 270 nM.

In turn, `CCOc1ccc(Cl)cc1C(=O)NCC(C)(C)C(F)C(=O)Nc1c(CCN(C)C)n(C)n(-c2ccccc2)c1=O` (stereo not drawn) [Example 91, 5-Chloro-N-[4-({5-[2-(dimethylamino)ethyl]-1-methyl-3-oxo-2-phenyl-2,3-dihydro-1H-pyrazol-4-yl}amino)-3-fluoro-2,2-dimethyl-4-oxobutyl]-2-ethoxybenzamide] returned an IC50 in experiment [1] of 110 nM. The compound further displayed a GI50 in experiment [2] (Homo sapiens, Ramos, 72 h) of 180 nM.

Turning to `Cc1cc2cc(Cl)cc(C(=O)NCC(C)(C)CC(=O)Nc3c(CC(C)(C)N)n(C)n(-c4ccccc4)c3=O)c2o1` [Example 58, N-(4-{[5-(2-amino-2-methylpropyl)-1-methyl-3-oxo-2-phenyl-2,3-dihyro-1H-pyrazol-4-yl]amino}-2,2-dimethyl-4-oxobutyl)-5-chloro-2-methylbenzofuran-7-carboxamide], in experiment [1], inhibition was half-maximal at 58 nM (IC50). Moreover, in experiment [2] (Homo sapiens, Ramos, 72 h), the GI50 worked out at 110 nM.

For the compound `CCOc1cc(F)c(Cl)cc1C(=O)NCC(C)(C)CC(=O)Nc1c(C(CN(C)C)OC)n(C)n(-c2ccccc2)c1=O` (stereo not drawn) [Example 80, 5-Chloro-N-[4-({5-[2-(dimethylamino)-1-methoxyethyl]-1-methyl-3-oxo-2-phenyl-2,3-dihydro-1H-pyrazol-4-yl}amino)-2,2-dimethyl-4-oxobutyl]-2-ethoxy-4-fluorobenzamide], the IC50 in experiment [1] amounted to 140 nM. In addition, the GI50 in experiment [2] (Homo sapiens, Ramos, 72 h) came to 170 nM.

In experiment [1], `CCOc1ncc(Cl)cc1C(=O)NCC(C)(C)CC(=O)Nc1c(C[C@H](C)N(C)C)n(C)n(-c2ccccc2)c1=O` [Example 53, 5-Chloro-N-[4-({5-[(2S)-2-(dimethylamino)propyl]-1-methyl-3-oxo-2-phenyl-2,3-dihydro-1H-pyrazol-4-yl}amino)-2,2-dimethyl-4-oxobutyl]-2-ethoxypyridine-3-carboxamide] registered an IC50 of 63 nM. Also, halving of growth in experiment [2] (Homo sapiens, Ramos, 72 h) (GI50) required 240 nM.

For the origin of these results see patent publication US20170107207A1, “AMINOPYRAZOLONE DERIVATIVE” (DAIICHI SANKYO COMPANY, LIMITED, priority 2014, published 2017).
